Test results taken from US20250066736A1, “HIGH-THROUGHPUT 3D CELL SPHEROID CULTURE CHIP, PREPARATION PROCESS AND USES THEREOF” (National Taiwan University, priority 2023, published 2025).

System: hepatocytes
Assay: In vitro liver fibrosis/toxicity model: relative cell viability of hepatocytes with CCl4-induced injury
Type: cell-based, Sprague Dawley rats
Details: for relative cell viability: 24 h (day 1)
Method: The procedure regarding in vitro liver fibrosis model is as follows. To create an in vitro toxicity model, we used CCl4 as a known hepatotoxic agent capable of inducing severe hepatotoxicity, ultimately leading to liver fibrosis. Initially, a stock solution of CCl4 was prepared by dissolving it in DMSO to a concentration of 20%. Subsequently, hepatocytes were aliquoted into 15-mL centrifuge tubes. These hepatocytes were subjected to a 10-min toxication process with CCl4 (0.05, 0.075, 0.1, 0.15, 0.2%)-containing culture medium (serum-free). Subsequently, hepatocytes were washed three times with PBS with centrifugation at 50×g for 1 min at 4° C. Thereafter, the supernatant was carefully removed, and the final cell pellet was seeded onto 0.1 mg/mL collagen-coated Petri dish at a density of 5×10^5 cells/mL.
The procedure regarding relative cell viability and liver-specific function of in vitro HUVEC-covered hepatocyte spheroids embedded in gel cultures is as follows. To assess relative cell viability, separate media formulations were used for 2D dish and 3D gel cultures. Specifically, 10% MTT-containing medium was used for the 2D dish culture, whereas 10% CCK8-containing medium was used for evaluating the cell viability in 3D hydrogel or spheroids. For MTT analysis, after 4-h incubation, half of the supernatant was removed from each well, and an equivalent volume of DMSO was added. Following an additional 10 min of incubation, absorbance was measured at 570 nm. For CCK8 analysis, after 4 h of incubation, 100 μL of the supernatant was transferred to a 96-well plate, and absorbance was measured at 450 nm. To calculate relative cell viability from days 1 to 14, the absorbance value of hepatocytes (or hepatocyte spheroids) in the control group (only gel without cells) measured on day 1 was used as baseline (blank) to exclude the influence of the gel. The absorbance value of each experimental condition was then divided by the value of the blank to obtain relative cell viability.

For `ClC(Cl)(Cl)Cl` [CCl4, Carbon tetrachloride], which relative cell viability (CCl4 concentration 0.05%) is on record?
Its relative cell viability is 60.53%±3.19%.

And the relative cell viability (CCl4 concentration 0.075%)?
The relative cell viability was 51.70%±5.99%.

What about the relative cell viability (CCl4 concentration 0.1%) of the same molecule?
Its relative cell viability is 28.06%±2.29%.

And the relative cell viability (CCl4 concentration 0.15%)?
Its relative cell viability is 2.67%±0.25%.

What about the relative cell viability (CCl4 concentration 0.2%) of the same molecule?
Its relative cell viability is 2.46%±0.63%.

What about the “half-maximal inhibitory concentration (IC50) for hepatocytes” value (estimated from viability at 24 h) of the same molecule?
The value was 0.075%.
